Blank lines part the entries; values can stand above or below the compound they belong to. Peptide text beside a SMILES is read from it.
Columns and labels:
[1] = SAR16 (16H7) standalone and in combination with dulaglutide in DIO NASH cynomolgus monkeys; format: in vivo, Cynomolgus monkey (Macaca fascicularis)
Protocol: Both were tested as single administration and in combination of both in the most relevant animal model that reflects the intended human population. Thus, the pharmacokinetic and pharmacodynamics of varying doses of the compounds were explored in the high-fat diet-induced obese and insulin resistance cynomolgus monkey model with diagnosed non-alcoholic steatohepatitis (NASH), mimicking the adult human NASH insulin resistance phenotype.
Cynomolgus monkey (Macaca fascicularis) was selected as the test species of choice for more meaningful results that were translatable to humans. More than 50 male monkeys were trained to identify 40 HFD induced obese NASH monkeys for the study.
There was a run-in period during which monkeys were injected subcutaneously with vehicle every third day. Food intake (calculated as TEI) and water intake were measured daily along with twice-weekly body weight evaluation and baseline value determination for metabolic biomarkers, safety biomarkers, IV glucose tolerance test (IVGTT), liver biopsy for gene expression analysis, and profile for glucose, insulin, and plasma lipids.
For the dosing period 40 trained monkeys (n=10 per group) were selected and stratified for body weight, fasting plasma glucose (FPG), and fasting plasma insulin (FPI) and insulin response from baseline during the IVGTT. All treatments were administered subcutaneously for […]. The dosing period was designed as a four-arm, dose-ramping study, and monkeys were treated with either vehicle, SAR10, SAR16, or a combination of both SAR10 and SAR16.
(§1) The SAR10-treated monkeys were dosed every 3rd day at 60 μg/kg initiated by dose ramping (3 dose steps, week 1: 20 μg/kg, week 2: 40 μg/kg, week 3 to runout: 60 μg/kg). The SAR16-treated monkeys were dosed at 1 mg/kg on day +1, 3 mg/kg on day +16, and then repeat maintenance dose of 3 mg/kg on day +46. The Combo-treated monkey were dosed with both SAR10 and SAR16 as the same pattern of the SAR10 and SAR16 treated monkeys.
Other parameters were also measured during the study, including food intake, body fat, plasma ketone bodies, as well as blood glucose control (glucose profile, fed, fasting plasma glucose and during ivGTT). One group received the vehicle. The compounds were administered subcutaneously (SC) (12 weeks “evaluation phase” plus run-out) to obese and NASH male cynomolgus macaques (Macaca fascicularis).
as §1, with “at” for “as”

human GIP receptor = target: T1, human GIP receptor (Homo sapiens, UniProt P48546); assay: HTRF cAMP assay in HEK-293 cells expressing human GIP receptor; format: cell-based; settings: HEK-293 cells; read-out: HTRF cAMP EC50 Human GIPR
T1 construct: expressed in transfected cells; host or cells: PSC-HEK-293
T1 sequence (P48546 22-466): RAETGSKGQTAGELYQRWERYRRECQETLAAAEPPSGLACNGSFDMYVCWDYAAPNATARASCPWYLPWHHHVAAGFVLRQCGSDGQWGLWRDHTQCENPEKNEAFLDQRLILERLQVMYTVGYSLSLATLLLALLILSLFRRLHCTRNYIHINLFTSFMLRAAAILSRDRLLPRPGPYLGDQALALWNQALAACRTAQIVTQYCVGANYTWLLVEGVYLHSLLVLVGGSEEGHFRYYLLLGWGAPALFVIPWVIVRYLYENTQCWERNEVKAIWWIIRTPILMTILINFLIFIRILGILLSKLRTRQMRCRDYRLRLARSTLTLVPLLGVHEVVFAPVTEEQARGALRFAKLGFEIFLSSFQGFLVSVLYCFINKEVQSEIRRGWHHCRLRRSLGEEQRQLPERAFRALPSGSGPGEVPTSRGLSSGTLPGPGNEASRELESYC
Protocol: (§2) Each vial contained 1.8 ml cells. The vials were slowly frozen to −80° C. in isopropanol, and then transferred in liquid nitrogen for storage.
(§3) Cells were resuspended in assay buffer (cell buffer plus 2 mM IBMX) and adjusted to a cell density of 1 million cells/ml.
(§4) For measurement of cAMP generation, 5 μl cells (final 5000 cells/well) and 5 μl of test compound were added to a 384-well plate, followed by incubation for 30 min at room temperature.
(§5) The cAMP generated was determined using a kit from Cisbio Corp. based on HTRF (Homogenous Time Resolved Fluorescence). The cAMP assay was performed according to manufacturer's instructions (Cisbio).

[2] = target: T2, human glucagon (GCG) receptor (Homo sapiens, UniProt P47871); assay: HTRF cAMP assay in HEK-293 cells expressing human glucagon receptor; format: cell-based; settings: HEK-293 cells; read-out: HTRF cAMP EC50 Human GCGR
T2 construct: expressed in transfected cells; host or cells: PSC-HEK-293
T2 sequence (P47871 26-477): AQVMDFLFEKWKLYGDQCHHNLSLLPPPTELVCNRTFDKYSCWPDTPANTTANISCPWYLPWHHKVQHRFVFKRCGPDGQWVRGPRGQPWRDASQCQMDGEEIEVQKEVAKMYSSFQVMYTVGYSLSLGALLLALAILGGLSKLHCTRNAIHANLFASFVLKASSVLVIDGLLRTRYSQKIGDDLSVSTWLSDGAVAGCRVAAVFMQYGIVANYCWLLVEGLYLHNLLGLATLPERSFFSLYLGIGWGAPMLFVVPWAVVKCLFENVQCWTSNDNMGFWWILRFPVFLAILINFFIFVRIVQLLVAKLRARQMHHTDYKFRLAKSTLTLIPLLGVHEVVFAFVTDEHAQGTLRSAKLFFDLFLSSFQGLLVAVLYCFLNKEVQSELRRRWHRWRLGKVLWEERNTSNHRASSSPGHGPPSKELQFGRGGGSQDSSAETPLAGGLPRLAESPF
Protocol: as §2, §3, §4, §5

[3] = compared to the vehicle treated group
[4] = day +76 compared to baseline (day −27)

Compound: dulaglutide [SAR10]
body weight (in words) ([1]; DIO NASH cynomolgus monkeys): Significant reductions in body weight | food intake ([1]; DIO NASH cynomolgus monkeys): Reduction of food intake | fasting glucose and fed glucose levels (12:30 and 18:30) [1, 3]: No significant change | ivGTT glucose AUC [1, 3]: significantly decreased | ivGTT plasma insulin AUC [1, 3]: significant increase | blood glucose levels, plasma profile [1, 4]: appreciable decreases | insulin, plasma profile [1, 4]: decreased | HDL levels, plasma profile ([1]; day +76 versus day −27): slightly increased | T-ketones levels, plasma profile ([1]; day +76 versus day −27): quite stable | TC and LDL levels, plasma profile ([1]; day +76 versus day −27): decreased | TG values, plasma profile ([1]; day +76 versus day −27): quite stable | liver fat fraction change (MRI) ([1]; measured on days +81/+82/+83/+84, DIO NASH cynomolgus monkeys): −25.2% | NASH steatosis score ([1]; more monkeys improved compared to vehicle treated group): improved steatosis score

EC50 (human GIP receptor): 0.39 nM | EC50 [2]: > 10 nM
Compound: CC[C@H](C)[C@H](NC(=O)[C@H](CC(C)C)NC(=O)[C@H](Cc1c[nH]c2ccccc12)NC(=O)[C@H](CCC(=O)O)NC(=O)[C@@H](NC(=O)[C@H](Cc1ccccc1)NC(=O)[C@H](CCC(=O)O)NC(=O)[C@H](Cc1c[nH]cn1)NC(=O)[C@H](CCC(N)=O)NC(=O)[C@H](C)NC(=O)[C@H](CCCNC(=N)N)NC(=O)[C@H](CCCCN)NC(=O)[C@H](CCC(=O)O)NC(=O)[C@H](CC(C)C)NC(=O)[C@H](CC(C)C)NC(=O)[C@H](CCCCN)NC(=O)[C@H](CO)NC(=O)[C@H](CC(C)C)NC(=O)[C@H](CC(=O)O)NC(=O)[C@H](CO)NC(=O)[C@@H](NC(=O)[C@H](Cc1ccccc1)NC(=O)[C@@H](NC(=O)CNC(=O)[C@H](CCC(=O)O)NC(=O)CNC(=O)[C@@H](N)Cc1c[nH]cn1)[C@@H](C)O)[C@@H](C)O)[C@@H](C)CC)C(=O)N[C@@H](C)C(=O)NCC(=O)NCC(=O)N1CCC[C@H]1C(=O)N[C@@H](CO)C(=O)N[C@@H](CO)C(=O)NCC(=O)N[C@@H](CCCCN)C(=O)N1CCC[C@H]1C(=O)N1CCC[C@H]1C(=O)N1CCC[C@H]1C(=O)N[C@@H](CCCCN)C(N)=O [Ab P028] (H-HGEGTFTSDLSKLLEKRAQHEFIEWLIAGGPSSGKPPPK-NH2; N-terminus assumed)

EC50 (human GIP receptor): 0.225 nM | EC50 [2]: > 10 nM
Compound: CC[C@H](C)[C@H](NC(=O)[C@H](CC(C)C)NC(=O)[C@H](Cc1c[nH]c2ccccc12)NC(=O)[C@H](CCC(=O)O)NC(=O)[C@@H](NC(=O)[C@H](Cc1ccccc1)NC(=O)[C@H](CCC(=O)O)NC(=O)[C@H](Cc1c[nH]cn1)NC(=O)[C@@H](NC(=O)[C@H](C)NC(=O)[C@H](CCCNC(=N)N)NC(=O)[C@H](CCCCN)NC(=O)[C@H](CCC(=O)O)NC(=O)[C@H](CC(C)C)NC(=O)[C@H](CC(C)C)NC(=O)[C@H](CCCCN)NC(=O)[C@H](CO)NC(=O)[C@H](CC(C)C)NC(=O)[C@H](CC(=O)O)NC(=O)[C@H](CO)NC(=O)[C@@H](NC(=O)[C@H](Cc1ccccc1)NC(=O)[C@@H](NC(=O)CNC(=O)[C@H](CCC(=O)O)NC(=O)CNC(=O)[C@@H](N)Cc1c[nH]cn1)[C@@H](C)O)[C@@H](C)O)C(C)C)[C@@H](C)CC)C(=O)N[C@@H](C)C(=O)NCC(=O)NCC(=O)N1CCC[C@H]1C(=O)N[C@@H](CO)C(=O)N[C@@H](CO)C(=O)NCC(=O)N[C@@H](CCCCN)C(=O)N1CCC[C@H]1C(=O)N1CCC[C@H]1C(=O)N1CCC[C@H]1C(=O)N[C@@H](CCCCN)C(N)=O [Ab P027] (H-HGEGTFTSDLSKLLEKRAVHEFIEWLIAGGPSSGKPPPK-NH2; N-terminus assumed)

EC50 (human GIP receptor): 2.76 nM | EC50 [2]: > 10 nM
Compound: CC[C@H](C)[C@H](NC(=O)[C@H](Cc1ccccc1)NC(=O)[C@H](CCC(=O)O)NC(=O)[C@H](Cc1c[nH]cn1)NC(=O)[C@H](CCC(N)=O)NC(=O)[C@H](C)NC(=O)[C@H](CCCNC(=N)N)NC(=O)[C@H](CCCCN)NC(=O)[C@H](CCC(=O)O)NC(=O)[C@H](CC(C)C)NC(=O)[C@H](CC(C)C)NC(=O)[C@H](CCCCN)NC(=O)[C@H](CO)NC(=O)[C@H](CC(C)C)NC(=O)[C@H](CC(=O)O)NC(=O)[C@H](CO)NC(=O)[C@@H](NC(=O)[C@H](Cc1ccccc1)NC(=O)[C@@H](NC(=O)CNC(=O)[C@H](CCC(=O)O)NC(=O)CNC(=O)[C@@H](N)Cc1c[nH]cn1)[C@@H](C)O)[C@@H](C)O)C(=O)N[C@@H](CCC(=O)O)C(=O)N[C@@H](Cc1c[nH]c2ccccc12)C(=O)N[C@@H](CC(C)C)C(=O)N[C@@H](CCCCN)C(=O)N[C@@H](C)C(=O)NCC(=O)NCC(=O)N1CCC[C@H]1C(=O)N[C@@H](CO)C(=O)N[C@@H](CO)C(=O)NCC(=O)N[C@@H](CCCCN)C(=O)N1CCC[C@H]1C(=O)N1CCC[C@H]1C(=O)N1CCC[C@H]1C(=O)N[C@@H](CCCCN)C(N)=O [Ab P030] (H-HGEGTFTSDLSKLLEKRAQHEFIEWLKAGGPSSGKPPPK-NH2; N-terminus assumed)

EC50 (human GIP receptor): 2.37 nM | EC50 [2]: > 10 nM
Compound: CC[C@H](C)[C@H](NC(=O)[C@H](Cc1ccccc1)NC(=O)[C@H](CCC(=O)O)NC(=O)[C@H](Cc1c[nH]cn1)NC(=O)[C@H](CCC(N)=O)NC(=O)[C@H](C)NC(=O)[C@H](CCCNC(=N)N)NC(=O)[C@H](CCCCN)NC(=O)[C@H](CCC(=O)O)NC(=O)[C@H](CC(C)C)NC(=O)[C@H](CC(C)C)NC(=O)[C@H](CCC(=O)O)NC(=O)[C@H](CO)NC(=O)[C@H](CC(C)C)NC(=O)[C@H](CC(=O)O)NC(=O)[C@H](CO)NC(=O)[C@@H](NC(=O)[C@H](Cc1ccccc1)NC(=O)[C@@H](NC(=O)CNC(=O)[C@H](CCC(=O)O)NC(=O)CNC(=O)[C@@H](N)Cc1c[nH]cn1)[C@@H](C)O)[C@@H](C)O)C(=O)N[C@@H](CCC(=O)O)C(=O)N[C@@H](Cc1c[nH]c2ccccc12)C(=O)N[C@@H](CC(C)C)C(=O)N[C@@H](CCCCN)C(=O)N[C@@H](C)C(=O)NCC(=O)NCC(=O)N1CCC[C@H]1C(=O)N[C@@H](CO)C(=O)N[C@@H](CO)C(=O)NCC(=O)N[C@@H](CCCCN)C(=O)N1CCC[C@H]1C(=O)N1CCC[C@H]1C(=O)N1CCC[C@H]1C(=O)N[C@@H](CCCCN)C(N)=O [Ab P032] (H-HGEGTFTSDLSELLEKRAQHEFIEWLKAGGPSSGKPPPK-NH2; N-terminus assumed)

EC50 (human GIP receptor): 0.271 nM | EC50 [2]: > 10 nM
Compound: CC[C@H](C)[C@H](NC(=O)[C@H](CC(C)C)NC(=O)[C@H](Cc1c[nH]c2ccccc12)NC(=O)[C@H](CCC(=O)O)NC(=O)[C@@H](NC(=O)[C@H](Cc1ccccc1)NC(=O)[C@H](CCC(=O)O)NC(=O)[C@H](Cc1c[nH]cn1)NC(=O)[C@H](CCC(N)=O)NC(=O)[C@H](C)NC(=O)[C@H](CCCNC(=N)N)NC(=O)[C@H](CCCCN)NC(=O)[C@H](CCC(=O)O)NC(=O)[C@H](CC(C)C)NC(=O)[C@H](CC(C)C)NC(=O)[C@H](CCC(=O)O)NC(=O)[C@H](CO)NC(=O)[C@H](CC(C)C)NC(=O)[C@H](CC(=O)O)NC(=O)[C@H](CO)NC(=O)[C@@H](NC(=O)[C@H](Cc1ccccc1)NC(=O)[C@@H](NC(=O)CNC(=O)[C@H](CCC(=O)O)NC(=O)CNC(=O)[C@@H](N)Cc1c[nH]cn1)[C@@H](C)O)[C@@H](C)O)[C@@H](C)CC)C(=O)N[C@@H](C)C(=O)NCC(=O)NCC(=O)N1CCC[C@H]1C(=O)N[C@@H](CO)C(=O)N[C@@H](CO)C(=O)NCC(=O)N[C@@H](CCCCN)C(=O)N1CCC[C@H]1C(=O)N1CCC[C@H]1C(=O)N1CCC[C@H]1C(=O)N[C@@H](CCCCN)C(N)=O [Ab P031] (H-HGEGTFTSDLSELLEKRAQHEFIEWLIAGGPSSGKPPPK-NH2; N-terminus assumed)
